From ChEMBL document CHEMBL4145470, “Efficient synthesis and first regioselective C-6 direct arylation of imidazo[2,1-c][1,2,4]triazine scaffold and their evaluation in H2O2-induced oxidative stress” (Eur J Med Chem, 2018) come the findings set out here.

Activity calls are given as the source filed them. No cut-off for these calls is given here.

Series [1] concerns SH-SY5Y. The experiment in a line: Cytoprotective activity against H2O2-induced oxidative stress in human SH-SY5Y cells assessed as cell viability at 10 uM preincubated for 24 hrs followed by H2O2 addition and measured after 1 hr by MTT assay (reference value: 37.88 +/- 8.52%). To be noted: read-out: Activity. Type of series: functional.
For series [2], the system named is SH-SY5Y. The experiment in a line: Cytoprotective activity against H2O2-induced oxidative stress in human SH-SY5Y cells assessed as increase in cell viability preincubated for 24 hrs followed by H2O2 addition and measured after 1 hr by MTT assay. Type of series: functional, cell-based. In general terms: Tetrazolium assays rely on reduction of a dye to a coloured formazan, in cell work by metabolically active cells.

Series [3] has as its system SH-SY5Y. The experiment in a line: Cytotoxicity against human SH-SY5Y cells at 1 to 10 uM after 24 hrs by MTT assay. Type of series: cell-based.
Series [4] addresses Eukaryotic translation initiation factor 2 subunit 1 (Homo sapiens) (UniProt P05198). The series is described as follows: Inhibition of H2O2-induced eIF2alpha phosphorylation in human SH-SY5Y cells at 0.1 uM. The series is classed as cell-based.
The test system of series [5] is SH-SY5Y. The experiment in a line: Cytoprotective activity against H2O2-induced apoptosis in human SH-SY5Y cells assessed as decrease in Bax levels at 0.1 uM preincubated for 24 hrs followed by H2O2 addition measured after 1 hr by Western blot analysis. Type of series: functional, cell-based. In general terms: In western blotting, separated proteins are transferred to a membrane and probed.

Series [6] has as its system SH-SY5Y. The series is described as follows: Cytoprotective activity against H2O2-induced apoptosis in human SH-SY5Y cells assessed as relative Bcl-2 levels at 0.1 uM preincubated for 24 hrs followed by H2O2 addition measured after 1 hr by Western blot analysis (reference value: 2.084 +/- 0.078). The series is classed as functional.
For series [7], the system named is SH-SY5Y. The series is described as follows: Cytoprotective activity against H2O2-induced oxidative stress in human SH-SY5Y cells assessed as cell viability at 1 uM preincubated for 24 hrs followed by H2O2 addition and measured after 1 hr by MTT assay (reference value: 37.88 +/- 8.52%). The series is classed as functional. The settings on record: read-out: Activity.

Series [8] has as its target T1, MAP kinase p38 (Homo sapiens) (UniProt O15264+Q15759+Q16539+P53778). The experiment in a line: Inhibition of H2O2-induced p38 MAPK phosphorylation in human SH-SY5Y cells at 0.1 uM. The series is classed as cell-based.
Series [9] has as its system SH-SY5Y. The experiment in a line: Cytoprotective activity against H2O2-induced oxidative stress in human SH-SY5Y cells assessed as cell viability at 0.1 uM preincubated for 24 hrs followed by H2O2 addition and measured after 1 hr by MTT assay (reference value: 37.88 +/- 8.52%). The series is classed as functional. To be noted: read-out: Activity.
Series [10] relates to SH-SY5Y. The series is described as follows: Cytoprotective activity against H2O2-induced apoptosis in human SH-SY5Y cells assessed as increase in Bcl-2/Bax ratio at 0.1 uM preincubated for 24 hrs followed by H2O2 addition measured after 1 hr by Western blot analysis. The series is classed as functional, cell-based.
The subject of series [11] is SH-SY5Y. The series is described as follows: Cytoprotective activity against H2O2-induced apoptosis in human SH-SY5Y cells assessed as relative cleaved caspase-3 levels at 0.1 uM (reference value: 0.875 +/- 0.035). Type of series: functional.
In series [12] the test system is SH-SY5Y. The series is described as follows: Cytoprotective activity against H2O2-induced apoptosis in human SH-SY5Y cells assessed as relative cleaved PARP levels at 0.1 uM (reference value: 0.725 +/- 0.06). The series is classed as functional.
The test system of series [13] is SH-SY5Y. The series is described as follows: Cytoprotective activity against H2O2-induced apoptosis in human SH-SY5Y cells assessed as relative cleaved caspase-7 levels at 0.1 uM (reference value: 1.025 +/- 0.120). The series is classed as functional.
In series [14] the target is T2, Mitogen-activated protein kinase; ERK1/ERK2 (Homo sapiens) (UniProt P27361+P28482). The series is described as follows: Inhibition of H2O2-induced p44/42 MAPK phosphorylation in human SH-SY5Y cells at 0.1 uM. Type of series: cell-based.
The nature of series [15]: Cytoprotective activity against H2O2-induced apoptosis in human SH-SY5Y cells assessed as relative cleaved caspase-7 levels at 1 uM (reference value: 1.025 +/- 0.120).
The target in series [16] is RAC-alpha serine/threonine-protein kinase (Homo sapiens) (UniProt P31749). The series is described as follows: Induction of Akt phosphorylation in H2O2-treated human SH-SY5Y cells at 1 uM by ELISA. The series is classed as cell-based.
In series [17] the test system is SH-SY5Y. The experiment in a line: Cytoprotective activity against H2O2-induced apoptosis in human SH-SY5Y cells assessed as relative cleaved PARP levels at 1 uM (reference value: 0.725 +/- 0.06). Type of series: functional.
Series [18] concerns the target Eukaryotic translation initiation factor 2 subunit 1 (Homo sapiens) (UniProt P05198). The experiment in a line: Inhibition of H2O2-induced eIF2alpha phosphorylation in human SH-SY5Y cells at 1 uM. The series is classed as cell-based.
Series [19] has as its target T1, MAP kinase p38 (Homo sapiens). The experiment in a line: Inhibition of H2O2-induced p38 MAPK phosphorylation in human SH-SY5Y cells at 1 uM. Type of series: cell-based.
The target in series [20] is T2, Mitogen-activated protein kinase; ERK1/ERK2 (Homo sapiens). The experiment in a line: Inhibition of H2O2-induced p44/42 MAPK phosphorylation in human SH-SY5Y cells at 1 uM. The series is classed as cell-based.
For series [21], the system named is SH-SY5Y. The experiment in a line: Cytoprotective activity against H2O2-induced apoptosis in human SH-SY5Y cells assessed as relative cleaved caspase-3 levels at 1 uM (reference value: 0.875 +/- 0.035). The series is classed as functional.
Series [22] addresses RAC-alpha serine/threonine-protein kinase (Homo sapiens) (UniProt P31749). The experiment in a line: Induction of Akt phosphorylation in H2O2-treated human SH-SY5Y cells assessed as increase in pBad levels at 1 uM by ELISA. Type of series: cell-based. (In general: In an ELISA, binding on a coated surface is turned into a signal by an enzyme label.)

Eukaryotic translation initiation factor 2 subunit 1 (Homo sapiens), sequence (P05198 whole entry): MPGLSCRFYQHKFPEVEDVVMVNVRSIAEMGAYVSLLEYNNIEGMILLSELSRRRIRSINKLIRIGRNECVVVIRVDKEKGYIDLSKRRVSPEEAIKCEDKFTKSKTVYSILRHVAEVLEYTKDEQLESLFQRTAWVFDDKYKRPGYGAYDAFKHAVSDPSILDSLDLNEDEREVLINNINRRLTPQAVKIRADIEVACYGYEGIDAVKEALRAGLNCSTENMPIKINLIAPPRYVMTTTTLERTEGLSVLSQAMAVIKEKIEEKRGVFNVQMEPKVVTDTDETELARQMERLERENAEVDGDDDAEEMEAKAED
T2 sequence (P27361 whole entry, looked up): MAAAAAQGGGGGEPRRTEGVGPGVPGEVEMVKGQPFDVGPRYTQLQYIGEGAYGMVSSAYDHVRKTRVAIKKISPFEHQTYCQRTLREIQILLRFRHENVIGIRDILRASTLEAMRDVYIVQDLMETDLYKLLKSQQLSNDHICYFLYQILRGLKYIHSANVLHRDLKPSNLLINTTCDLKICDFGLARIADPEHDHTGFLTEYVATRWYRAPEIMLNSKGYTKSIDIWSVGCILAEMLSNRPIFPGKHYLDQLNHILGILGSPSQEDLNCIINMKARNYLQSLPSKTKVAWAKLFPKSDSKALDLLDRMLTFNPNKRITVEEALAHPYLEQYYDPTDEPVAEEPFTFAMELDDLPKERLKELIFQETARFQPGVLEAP
T2 sequence (P28482 whole entry, looked up): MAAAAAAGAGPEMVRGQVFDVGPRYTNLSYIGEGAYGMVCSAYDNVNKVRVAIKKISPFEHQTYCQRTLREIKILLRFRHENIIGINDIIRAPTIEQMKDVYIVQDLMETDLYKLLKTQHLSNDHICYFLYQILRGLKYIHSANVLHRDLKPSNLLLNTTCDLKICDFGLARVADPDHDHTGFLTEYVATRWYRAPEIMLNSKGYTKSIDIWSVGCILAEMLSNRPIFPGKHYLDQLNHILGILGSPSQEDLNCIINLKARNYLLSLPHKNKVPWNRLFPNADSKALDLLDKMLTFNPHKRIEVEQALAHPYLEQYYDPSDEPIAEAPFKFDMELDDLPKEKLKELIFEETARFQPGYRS
RAC-alpha serine/threonine-protein kinase (Homo sapiens), sequence (P31749 whole entry): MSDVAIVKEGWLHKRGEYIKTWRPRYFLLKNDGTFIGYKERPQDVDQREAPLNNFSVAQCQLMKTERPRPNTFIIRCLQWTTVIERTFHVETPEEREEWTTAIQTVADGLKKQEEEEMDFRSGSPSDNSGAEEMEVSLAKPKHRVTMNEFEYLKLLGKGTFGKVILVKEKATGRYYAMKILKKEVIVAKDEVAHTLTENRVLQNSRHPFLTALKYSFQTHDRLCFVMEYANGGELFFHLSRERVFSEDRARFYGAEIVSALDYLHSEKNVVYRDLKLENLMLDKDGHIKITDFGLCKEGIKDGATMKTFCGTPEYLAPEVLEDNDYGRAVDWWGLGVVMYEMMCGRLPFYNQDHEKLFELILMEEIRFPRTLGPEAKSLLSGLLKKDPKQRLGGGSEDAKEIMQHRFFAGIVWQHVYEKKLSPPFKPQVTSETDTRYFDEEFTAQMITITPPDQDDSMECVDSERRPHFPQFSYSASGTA

For `FC(F)(F)c1ccc(-c2cn3ccnnc3n2)cc1`, in series [1], the viability at 10 µM was found to be 60.8%. In addition, the Activity result is “Dose-dependent effect” in series [2] and “Non-Toxic” in series [3]. In addition, the inhibition result in [4] is “inactive”. In addition, the result in series [5] and in series [10] was Active. For the same molecule, the “fold change (FC)” value in series [6] is 2.923. Further, the viability at 1 µM in series [7] stood at 59.1%. Also, the inhibition entry in series [8] is “Active”. For the same molecule, in series [9], the viability at 0.1 µM was 85.1%.

With `COc1cccc(-c2cn3ccnnc3n2)c1`, the “fold change (FC)” value in [11] was determined as 0.595; in [12], 0.48; in series [13], 0.815. Also, the viability at 10 µM in series [1] stood at 65%. Moreover, the Activity result in series [2] was “Dose-dependent effect”; in series [3] it was “Non-Toxic”. Also, in [4], the inhibition entry was “inactive”. The outcome in series [5] was Active. Besides, in series [7], the viability at 1 µM turned out to be 62.8%. Besides, the inhibition result in series [8] and in series [14] was “Active” each time. Also, the viability at 0.1 µM in series [9] was found to be 73.8%.

On to `COc1ccc(-c2nc3nnccn3c2-c2ccc(C)cc2)cc1`, for which the fold change (FC) in series [15] came to 0.856; in series [17], 0.581; in series [21], 0.628. The result in series [16] and in [22] was Active. In series [1], the viability at 10 µM worked out at 63.3%. Moreover, the Activity entry in [2] is “Dose-dependent effect”; in [3], “Non-Toxic”. The viability at 1 µM in series [7] was 67.4%. In series [18], the inhibition entry is “inactive”. Besides, the inhibition result in [19] and in [20] was “Active” in each case. For the same molecule, the viability at 0.1 µM in series [9] was 55.3%.
